This passage reports relative viability results from the supplement of paper PMC10307832.

Test in all cases: relative viability (nuclei count vs DMSO), 5 days (fraction); higher = more cells survive
Compound in the experiment “Linsitinib + Decitabine”: C[C@]1(O)C[C@@H](c2nc(-c3ccc4ccc(-c5ccccc5)nc4c3)c3c(N)nccn32)C1 [Linsitinib] + Nc1ncn([C@H]2C[C@H](O)[C@@H](CO)O2)c(=O)n1 [Decitabine] (partner 2 µM)
The method in brief: (§1)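 Lung cancer cell lines in 1536-well plates got either a single drug or a fixed anchor-drug dose together with five library-drug doses (not always all listed) in √10 steps, by pin tool, on the day after seeding. Nuclei were counted after 5 days, and relative viability is the treated-to-vehicle ratio of nuclei counts. Values are medians of duplicate plates.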

Compound in the experiment “Linsitinib + Luminespib”: C[C@]1(O)C[C@@H](c2nc(-c3ccc4ccc(-c5ccccc5)nc4c3)c3c(N)nccn32)C1 [Linsitinib] + CCNC(=O)c1noc(-c2cc(C(C)C)c(O)cc2O)c1-c1ccc(CN2CCOCC2)cc1 [Luminespib] (partner 0.01 µM)
The method in brief:
as §1

Compound in the experiment “Ispinesib + Lapatinib”: Cc1ccc(C(=O)N(CCCN)[C@@H](c2nc3cc(Cl)ccc3c(=O)n2Cc2ccccc2)C(C)C)cc1 [Ispinesib] + CS(=O)(=O)CCNCc1ccc(-c2ccc3ncnc(Nc4ccc(OCc5cccc(F)c5)c(Cl)c4)c3c2)o1 [Lapatinib] (partner 2 µM)
Put shortly:
as §1

For the cell line COR-L23, the relative viability with Linsitinib + Decitabine (first compound 0.01 µM) was 0.399; with Linsitinib + Decitabine (first compound 0.03162 µM) it was 0.539; in the experiment with Linsitinib + Decitabine (first compound 0.1 µM), 0.418; with Linsitinib + Decitabine (first compound 0.3162 µM), 0.351; with Linsitinib + Decitabine (first compound 1 µM) it was 0.441; with Linsitinib + Luminespib (first compound 0.01 µM) it was 0.678. The relative viability in the experiment with Linsitinib + Luminespib (first compound 0.03162 µM) was 0.48; with Linsitinib + Luminespib (first compound 0.1 µM) it was 0.783; with Linsitinib + Luminespib (first compound 0.3162 µM), 0.555; with Linsitinib + Luminespib (first compound 1 µM) it was 0.583; with Ispinesib + Lapatinib (first compound 0.001 µM), 1.03; in the experiment with Ispinesib + Lapatinib (first compound 0.003162 µM), 1.06. Also, the relative viability amounted to 0.814 in the experiment with Ispinesib + Lapatinib (first compound 0.01 µM), 0.147 with Ispinesib + Lapatinib (first compound 0.03162 µM) and 0.272 in the experiment with Ispinesib + Lapatinib (first compound 0.1 µM).

For COR-L 105, the relative viability was 0.636 in the experiment with Linsitinib + Decitabine (first compound 0.01 µM); 0.569 with Linsitinib + Decitabine (first compound 0.03162 µM); 0.597 in the experiment with Linsitinib + Decitabine (first compound 0.1 µM); 0.554 with Linsitinib + Decitabine (first compound 0.3162 µM); 0.659 with Linsitinib + Decitabine (first compound 1 µM); 0.857 with Linsitinib + Luminespib (first compound 0.01 µM). Also, the relative viability in the experiment with Linsitinib + Luminespib (first compound 0.03162 µM) was 0.688; in the experiment with Linsitinib + Luminespib (first compound 0.1 µM), 0.644; with Linsitinib + Luminespib (first compound 0.3162 µM), 0.638; in the experiment with Linsitinib + Luminespib (first compound 1 µM), 0.581; in the experiment with Ispinesib + Lapatinib (first compound 0.001 µM) it was 0.347; with Ispinesib + Lapatinib (first compound 0.003162 µM), 0.311. For the same cell line, the relative viability with Ispinesib + Lapatinib (first compound 0.01 µM) was determined as 0.251; in the experiment with Ispinesib + Lapatinib (first compound 0.03162 µM), 0.247; with Ispinesib + Lapatinib (first compound 0.1 µM) it was 0.265.

For the cell line Calu-6, the relative viability was 1.24 with Ispinesib + Lapatinib (first compound 0.001 µM); 0.955 with Ispinesib + Lapatinib (first compound 0.003162 µM); 0.526 with Ispinesib + Lapatinib (first compound 0.01 µM); 0.217 with Ispinesib + Lapatinib (first compound 0.03162 µM); 0.256 with Ispinesib + Lapatinib (first compound 0.1 µM).

As to ChaGo-K-1, the relative viability was found to be 0.504 with Linsitinib + Decitabine (first compound 0.01 µM); 0.519 with Linsitinib + Decitabine (first compound 0.03162 µM); 0.49 with Linsitinib + Decitabine (first compound 0.1 µM); 0.51 with Linsitinib + Decitabine (first compound 1 µM); 0.644 with Linsitinib + Luminespib (first compound 0.01 µM); 0.535 with Linsitinib + Luminespib (first compound 0.03162 µM). Besides, the relative viability was 0.544 in the experiment with Linsitinib + Luminespib (first compound 0.1 µM), 0.699 with Linsitinib + Luminespib (first compound 0.3162 µM) and 0.728 in the experiment with Linsitinib + Luminespib (first compound 1 µM).

EBC-1: the relative viability with Ispinesib + Lapatinib (first compound 0.001 µM) was determined as 0.203; with Ispinesib + Lapatinib (first compound 0.003162 µM), 0.204; with Ispinesib + Lapatinib (first compound 0.01 µM) it was 0.223; with Ispinesib + Lapatinib (first compound 0.03162 µM) it was 0.13; in the experiment with Ispinesib + Lapatinib (first compound 0.1 µM) it was 0.193.

With EKVX, the relative viability with Linsitinib + Decitabine (first compound 0.03162 µM) is 0.37; with Linsitinib + Decitabine (first compound 0.1 µM), 0.329; with Linsitinib + Decitabine (first compound 0.3162 µM), 0.348; in the experiment with Linsitinib + Decitabine (first compound 1 µM), 0.324; with Linsitinib + Luminespib (first compound 0.01 µM), 0.844; in the experiment with Linsitinib + Luminespib (first compound 0.03162 µM), 0.842. Besides, the relative viability turned out to be 0.87 with Linsitinib + Luminespib (first compound 0.1 µM); 0.688 in the experiment with Linsitinib + Luminespib (first compound 0.3162 µM); 0.684 with Linsitinib + Luminespib (first compound 1 µM); 0.208 with Ispinesib + Lapatinib (first compound 0.001 µM); 0.206 with Ispinesib + Lapatinib (first compound 0.003162 µM); 0.204 with Ispinesib + Lapatinib (first compound 0.01 µM). Besides, the relative viability with Ispinesib + Lapatinib (first compound 0.03162 µM) was determined as 0.223; in the experiment with Ispinesib + Lapatinib (first compound 0.1 µM) it was 0.131.

Consider EMC-BAC-2, for which the relative viability in the experiment with Linsitinib + Decitabine (first compound 0.01 µM) worked out at 0.98; with Linsitinib + Decitabine (first compound 0.03162 µM), 1.11; with Linsitinib + Decitabine (first compound 0.1 µM), 0.881; with Linsitinib + Decitabine (first compound 0.3162 µM) it was 0.733; in the experiment with Linsitinib + Decitabine (first compound 1 µM) it was 0.727; with Linsitinib + Luminespib (first compound 0.01 µM), 1.07. Also, the relative viability came to 1.2 in the experiment with Linsitinib + Luminespib (first compound 0.03162 µM); 1.26 with Linsitinib + Luminespib (first compound 0.1 µM); 1.01 with Linsitinib + Luminespib (first compound 0.3162 µM); 0.95 with Linsitinib + Luminespib (first compound 1 µM); 0.936 with Ispinesib + Lapatinib (first compound 0.001 µM); 0.933 with Ispinesib + Lapatinib (first compound 0.003162 µM). Further, the relative viability in the experiment with Ispinesib + Lapatinib (first compound 0.01 µM) was found to be 1; with Ispinesib + Lapatinib (first compound 0.03162 µM) it was 0.724; with Ispinesib + Lapatinib (first compound 0.1 µM) it was 0.233.

For the cell line EPLC-272H, the relative viability with Linsitinib + Decitabine (first compound 0.01 µM) came out at 0.316; with Linsitinib + Decitabine (first compound 0.03162 µM), 0.375; with Linsitinib + Decitabine (first compound 0.1 µM), 0.389; in the experiment with Linsitinib + Decitabine (first compound 1 µM) it was 0.344; with Linsitinib + Luminespib (first compound 0.01 µM), 0.23; with Linsitinib + Luminespib (first compound 0.03162 µM), 0.438. Further, the relative viability in the experiment with Linsitinib + Luminespib (first compound 1 µM) amounted to 0.725; in the experiment with Ispinesib + Lapatinib (first compound 0.001 µM), 0.919; with Ispinesib + Lapatinib (first compound 0.003162 µM), 1.11; with Ispinesib + Lapatinib (first compound 0.01 µM), 1.02; with Ispinesib + Lapatinib (first compound 0.03162 µM), 0.561; with Ispinesib + Lapatinib (first compound 0.1 µM), 0.145.
